Assay results: US6716853B2, “Cyclic N-substituted alpha-imino carboxylic acids for selective inhibition of collogenase” (Aventis Pharma Deutschland GmbH, priority 2002, dated 2004)
Read-outs that look alike come from different tables or passages of the source. Blank lines part the entries; values can stand above or below the compound they belong to.

Key:
Format in all cases: biochemical
[1] = target: T1, human stromelysin (MMP-3) catalytic domain (Homo sapiens, UniProt P08254); experiment: Enzymatic activity of the catalytic domain of human stromelysin (MMP 3), fluorogenic substrate; conditions: Table 2; pH 7.5
T1 construct: catalytic domain of human stromelysin (MMP 3); made in house
T1 sequence (P08254 100-272 limits assumed): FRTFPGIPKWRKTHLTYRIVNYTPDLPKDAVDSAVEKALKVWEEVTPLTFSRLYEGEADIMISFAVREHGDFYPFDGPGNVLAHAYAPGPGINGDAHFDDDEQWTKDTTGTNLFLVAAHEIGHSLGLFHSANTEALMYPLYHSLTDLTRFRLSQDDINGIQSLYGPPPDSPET
Protocol: (§1) Preparation and determination of the enzymatic activity of the catalytic domain of human stromelysin (MMP 3) and neutrophil collagenase (MMP8).
(§2) The two enzymes—stromelysin (MMP-3) and neutrophil collagenase (MMP-8)—were prepared as described by Ye et al. (Biochemistry; 31 (1992) pages 11231-11235). To measure the enzymic activity or the enzyme inhibitory effect, 70 μl of buffer solution and 10 μl of enzyme solution are incubated at physiological pH with 10 μl of a 10% strength (v/v) aqueous dimethyl sulfoxide solution which optionally contains the enzyme inhibitor for 15 minutes. After addition of 10 μl of a 10% strength (v/v) aqueous dimethyl sulfoxide solution which contains 1 mmol/l of the substrate, the enzymic reaction is followed by fluorescence spectroscopy (328 nm (ex)/393 nm(em)).
(§3) The enzymic activity is represented as increase in extinction/minute. The IC50 values listed in table 2 are measured as the inhibitor concentrations leading in each case to 50% inhibition of the enzyme.
(§4) The buffer solution contains 0.05% Brij (Sigma, Deisenhofen, Germany) and 0.1 mol/l Tris/HCl, 0.1 mol/l NaCl, 0.01 mol/l CaCl2 and 0.1 mol/l piperazine-N,N′-bis[2-ethanesulfonic acid] (pH=7.5).
(§5) The enzyme solution contains 5 μg/ml of one of the enzyme domains prepared as described by Ye et al. The substrate solution contains 1 mmol/l of the fluorogenic substrate (7-methoxycoumarin-4-yl)acetyl-Pro-Leu-Gly-Leu-3-(2,4-dinitrophenyl)-L-2,3-diaminopropionyl-Ala-Arg-NH2 (Bachem, Heidelberg, Germany).

[2] = target: T2, human collagenase 3 (MMP-13) catalytic domain (Homo sapiens, UniProt P45452); experiment: Enzymatic activity of the catalytic domain of human collagenase 3 (MMP-13), fluorogenic substrate
T2 construct: catalytic domain of human collagenase 3 (MMP-13); purchased INVITEK, Berlin 30 100 803
Protocol: Determination of the enzymatic activity of the catalytic domain of human collagenase 3 (MMP-13).
Activation of the proenzyme:
2 parts by volume of proenzyme are incubated with 1 part by volume of APMA solution at 37° C. for 1.5 hours. The APMA solution is prepared from a 10 mmol/L
p-aminophenylmercuric acetate solution in […] by dilution with 3 parts by volume of Tris/HCl buffer pH7.5 (see below). The pH is adjusted to between 7.0 and 7.5 by adding 1 mmol/L HCl. After activation of the enzyme it is diluted with the Tris/HCl buffer to a concentration of 1.67 μg/mL.
To measure the enzymic activity, 10 μL of enzyme solution are incubated with 10 μL of a 3% strength (v/v) buffered dimethyl sulfoxide solution (reaction 1) for 15 minutes. To measure the enzyme inhibitory activity, 10 μL of enzyme solution are incubated with 10 μL of a 3% strength (v/v) buffered dimethyl sulfoxide solution which contains the enzyme inhibitor (reaction 2).
The enzymic reaction both in reaction 1 and in reaction 2 is followed, after addition of 10 μL of a 3% strength (v/v) aqueous dimethyl sulfoxide solution which contains 0.75 mmol/L of the substrate, by fluorescence spectroscopy (328 nm (extinction)/393 nm(emission)).
The enzymic activity is represented as increase in extinction/minute.
The inhibitory effect is calculated as percentage inhibition by the following formula:
% inhibition=100−[(increase in extinction/minute in reaction 2)/(increase in extinction/minute in reaction 1)×100].
The IC50, i.e. the inhibitor concentration necessary for 50% inhibition of enzymic activity, is found by plotting a graph of the percentage inhibitions at various inhibitor concentrations.
The buffer solution contains 0.05% Brij (Sigma, Deisenhofen, Germany) and 0.1 mol/L Tris/HCl, 0.1 mol/L NaCl, 0.01 mol/L CaCl2 (pH=7.5).
The enzyme solution contains 1.67 μg/mL of the enzyme domain.
The substrate solution contains 0.75 mmol/L of the fluorogenic substrate (7-methoxycoumarin-4-yl)acetyl-Pro-Leu-Gly-Leu-3-(2,4-dinitrophenyl)-L-2,3-diaminopropionyl-Ala-Arg-NH2 (Bachem, Heidelberg, Germany).

[3] = target: T3, human neutrophil collagenase (MMP-8) catalytic domain (Homo sapiens, UniProt P22894); experiment: Enzymatic activity of the catalytic domain of human neutrophil collagenase (MMP 8), fluorogenic substrate; conditions: Table 2; pH 7.5
T3 construct: catalytic domain of human stromelysin (MMP 3) and neutrophil collagenase (MMP8); made in house
T3 sequence (P22894 100-262 limits assumed): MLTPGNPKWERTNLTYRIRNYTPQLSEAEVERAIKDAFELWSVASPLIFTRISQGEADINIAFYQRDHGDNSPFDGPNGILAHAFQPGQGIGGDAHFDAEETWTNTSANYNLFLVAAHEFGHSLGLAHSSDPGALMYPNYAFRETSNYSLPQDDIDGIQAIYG
Protocol: as §1, §2, §3, §4, §5

[4] = Table 2, pH 7.5, read-out: MMP 13 IC50
[5] = Table 3, comparative examples, determination as described above, read-out: MMP 13

SMILES: CCOC(=O)Nc1ccc(-c2ccc(S(=O)(=O)N3Cc4ccccc4C[C@@H]3C(=O)O)cc2)cc1 [Example 1]
- IC50 [1]: 3 µM
- IC50 [2, 4]: 40 nM
- IC50 [3]: 2300 nM

SMILES: CCCCCCOC(=O)Nc1ccc(-c2ccc(S(=O)(=O)N3Cc4ccccc4C[C@@H]3C(=O)O)cc2)cc1 [Example 3]
- IC50 [1]: > 10 µM
- IC50 [2, 4]: 70 nM
- IC50 [3]: 2000 nM

SMILES: CC(C)OC(=O)Nc1ccc(-c2ccc(S(=O)(=O)N3Cc4ncn(C)c4C[C@@H]3C(=O)O)cc2)cc1 [Example 6]
- IC50 [2, 4]: 80 nM
- IC50 [3]: 4000 nM

SMILES: Cn1cnc2c1C[C@H](C(=O)O)N(S(=O)(=O)c1ccc(-c3ccc(NC(=O)OCc4ccccc4)cc3)cc1)C2 [Example 7]
- IC50 [1]: > 10 µM
- IC50 [2, 4]: 60 nM
- IC50 [3]: 1000 nM

SMILES: Cn1cnc2c1C[C@H](C(=O)O)N(S(=O)(=O)c1ccc(-c3ccc(NC(=O)OCC(C)(C)C)cc3)cc1)C2 [Example 8]
- IC50 [1]: > 10 µM
- IC50 [2, 4]: 70 nM
- IC50 [3]: 5000 nM

SMILES: CC(C)COC(=O)Nc1ccc(-c2ccc(S(=O)(=O)N3Cc4ncn(C)c4C[C@@H]3C(=O)O)cc2)cc1 [Example 9]
- IC50 [2, 4]: 60 nM
- IC50 [3]: 200 nM

SMILES: O=C(O)[C@H]1Cc2ccccc2CN1S(=O)(=O)c1ccc(-c2ccccc2)cc1 [Example 34, reference compound]
- IC50 [2, 5]: 50 nM

SMILES: O=C(O)[C@H]1Cc2ccccc2CN1S(=O)(=O)c1ccc(-c2ccc(Cl)cc2)cc1 [Example 35, reference compound]
- IC50 [2, 5]: 30 nM

SMILES: CN(C)c1ccc(-c2ccc(S(=O)(=O)N3Cc4ccccc4C[C@@H]3C(=O)O)cc2)cc1 [Example 39, reference compound]
- IC50 [2, 5]: 2.9 nM

The remaining compounds from weak to strong by IC50 [2, 4], led by results:

- IC50 [1]: 3 µM
- IC50 [2, 4]: 30 nM
- IC50 [3]: 6000 nM
SMILES: CC(C)OC(=O)Nc1ccc(-c2ccc(S(=O)(=O)N3Cc4ccccc4C[C@@H]3C(=O)O)cc2)cc1 [Example 2, 2-(4′-Isopropoxycarbonylaminobiphenyl-4-sulfonyl)-1,2,3,4-tetrahydroisocquinoline-3-(R)-carboxylic acid]

- IC50 [1]: 2 µM
- IC50 [2, 4]: 20 nM
- IC50 [3]: 3000 nM
SMILES: CC(C)COC(=O)Nc1ccc(-c2ccc(S(=O)(=O)N3Cc4ccccc4C[C@@H]3C(=O)O)cc2)cc1 [Example 4]

- IC50 [1]: 3 µM
- IC50 [2, 4]: 20 nM
- IC50 [3]: 4000 nM
SMILES: O=C(Nc1ccc(-c2ccc(S(=O)(=O)N3Cc4ccccc4C[C@@H]3C(=O)O)cc2)cc1)OCC1CC1 [Example 5]

- IC50 [1]: > 10 µM
- IC50 [2, 4]: 20 nM
- IC50 [3]: 700 nM
SMILES: Cn1cnc2c1C[C@H](C(=O)O)N(S(=O)(=O)c1ccc(-c3ccc(NC(=O)OCC4CC4)cc3)cc1)C2 [Example 10]
